Assay results published in patent publication US12123048B2, “Fluorinated 4′-alkylumbelliferyl a-D-glucopyranosides, biological sterilization indicators including the same and methods of using the same” (3M INNOVATIVE PROPERTIES COMPANY, priority 2018, dated 2024).

Experiment: Fluorescence of control wells containing enzyme substrate in LB broth without spores
Type: physicochemical
Conditions: substrate 0.3 mg/mL, 60° C.
Description: Luria-Bertani (LB) broth was prepared by dissolving tryptone (10 g/L), yeast extract (5 g/L), and NaCl (5 g/L) in deionized water. In the examples, 6′-fluoro-4′-methylumbelliferyl α-D-glucopyranoside (0.3 mg/mL) or 5′-fluoro-4′-methylumbelliferyl α-D-glucopyranoside (0.3 mg/mL) was added to the broth. In the comparative examples, 4′-methylumbelliferyl α-D-glucopyranoside (MUG) (0.3 mg/mL) or 6′,8′-Difluoro-4′-methylumbelliferyl α-D-glucopyranoside (0.3 mg/mL) was added to the broth. The pH of the broth was adjusted to either pH 6, pH 7, pH 8, or pH 9 using 0.1 N hydrochloric acid or 1N sodium hydroxide solutions. The broth was passed through a 0.22 micron filter prior to use.
LB broth (pH 6) containing 6′-fluoro-4′-methylumbelliferyl α-D-glucopyranoside (0.3 mg/mL) (enzyme substrate of Example 1) was added to two wells (100 microliters per well) of a black 96-well microtiter plate with optically clear, flat bottom wells (NUNC #165301, Thermo Fisher Scientific, Waltham, MA). A 5 microliter aqueous suspension containing 5×10^6 Geobacillus stearothermophilus spores (ATCC 7953) was added to each well of the microtiter plate. Next, the contents of each well were mixed using a multiple aspiration/delivery sequence with the pipet. […] The top of the plate was covered with an optically clear sealing film (product #4311971, Applied Biosystems Corporation, Foster City, CA). The plate was warmed at 60° C. and shaken in a linear direction. Fluorescence readings (360 nm excitation/450 nm emission at 50% gain) were taken from the bottom of the plate. A reading was taken at an initial time point of 10 seconds and then at +1 minute intervals thereafter. A Synergy Neo2 fluorescence plate reader (BioTek Company, Winooski, VT) was used. In Table 1, the mean fluorescence values detected (RFU) at times of 10 seconds, +5 minutes, +10 minutes, and +30 minutes are reported. The mean fluorescence values detected for the control wells were 978 RFU at 10 seconds; 920 RFU at +5 minutes; 870 RFU at +10 minutes, and 746 RFU at +30 minutes.
LB broth (pH 7) containing 6′-fluoro-4′-methylumbelliferyl α-D-glucopyranoside (0.3 mg/mL) (enzyme substrate of Example 1) was added to two wells (100 microliters per well) of a black 96-well microtiter plate with optically clear, flat bottom wells (NUNC #165301, Thermo Fisher Scientific). A 5 microliter aqueous suspension containing 5×10^6 Geobacillus stearothermophilus spores (ATCC 7953) was added to each well of the microtiter plate. Next, the contents of each well were mixed using a multiple aspiration/delivery sequence with the pipet. […] The top of the plate was covered with an optically clear sealing film (product #4311971, Applied Biosystems Corporation). The plate was warmed at 60° C. and shaken in a linear direction. Fluorescence readings (360 nm excitation/450 nm emission at 50% gain) were taken from the bottom of the plate. A reading was taken at an initial time point of 10 seconds and then at +1 minute intervals thereafter. A Synergy Neo2 fluorescence plate reader (BioTek Company) was used. In Table 2, the mean fluorescence values detected (RFU) at times of 10 seconds, +5 minutes, +10 minutes, and +30 minutes are reported. The mean fluorescence values detected for the control wells were 989 RFU at 10 seconds; 936 RFU at +5 minutes; 895 RFU at +10 minutes, and 763 RFU at +30 minutes.
LB broth (pH 8) containing 6′-fluoro-4′-methylumbelliferyl α-D-glucopyranoside (0.3 mg/mL) (enzyme substrate of Example 1) was added to two wells (100 microliters per well) of a black 96-well microtiter plate with optically clear, flat bottom wells (NUNC #165301, Thermo Fisher Scientific). A 5 microliter aqueous suspension containing 5×10^6 Geobacillus stearothermophilus spores (ATCC 7953) was added to each well of the microtiter plate. Next, the contents of each well were mixed using a multiple aspiration/delivery sequence with the pipet. […]

mean fluorescence values detected for the control wells (pH 6 LB broth, 10 seconds) | mean fluorescence values detected for the control wells (pH 6 LB broth, +5 minutes) | mean fluorescence values detected for the control wells (pH 6 LB broth, +10 minutes) | mean fluorescence values detected for the control wells (pH 6 LB broth, +30 minutes) | mean fluorescence values detected for the control wells (pH 7 LB broth, 10 seconds) | mean fluorescence values detected for the control wells (pH 7 LB broth, +5 minutes) | mean fluorescence values detected for the control wells (pH 7 LB broth, +10 minutes) | mean fluorescence values detected for the control wells (pH 7 LB broth, +30 minutes) | mean fluorescence values detected for the control wells (pH 8 LB broth, 10 seconds) | mean fluorescence values detected for the control wells (pH 8 LB broth, +5 minutes) | mean fluorescence values detected for the control wells (pH 8 LB broth, +10 minutes) | mean fluorescence values detected for the control wells (pH 8 LB broth, +30 minutes) | mean fluorescence values detected for the control wells (pH 9 LB broth, 10 seconds) | mean fluorescence values detected for the control wells (pH 9 LB broth, +5 minutes) | mean fluorescence values detected for the control wells (pH 9 LB broth, +10 minutes) | mean fluorescence values detected for the control wells (pH 9 LB broth, +30 minutes) | SMILES
1,768 RFU | 1,750 RFU | 1,743 RFU | 1,805 RFU | 1,536 RFU | 1,519 RFU | 1,508 RFU | 1,439 RFU | 2,547 RFU | 2,601 RFU | 2,666 RFU | 3,020 RFU | 1,381 RFU | 1,397 RFU | 1,496 RFU | 2,521 RFU | Cc1cc(=O)oc2c(F)c(O[C@H]3O[C@H](CO)[C@@H](O)[C@H](O)[C@H]3O)c(F)cc12 [Comparative Example A, 6′,8′-Difluoro-4′-methylumbelliferyl α-D-glucopyranoside]
978 RFU | 920 RFU | 870 RFU | 746 RFU | 989 RFU | 936 RFU | 895 RFU | 763 RFU | 940 RFU | 884 RFU | 845 RFU | 723 RFU | 825 RFU | 772 RFU | 738 RFU | 633 RFU | Cc1cc(=O)oc2cc(O[C@H]3O[C@H](CO)[C@@H](O)[C@H](O)[C@H]3O)c(F)cc12 [Example 1, 6′-Fluoro-4′-methylumbelliferyl α-D-glucopyranoside]
828 RFU | 784 RFU | 738 RFU | 622 RFU | 720 RFU | 679 RFU | 646 RFU | 547 RFU | 616 RFU | 573 RFU | 538 RFU | 455 RFU | 501 RFU | 449 RFU | 421 RFU | 365 RFU | Cc1cc(=O)oc2cc(O[C@H]3O[C@H](CO)[C@@H](O)[C@H](O)[C@H]3O)cc(F)c12 [Example 2, 5′-Fluoro-4′-methylumbelliferyl α-D-glucopyranoside]
868 RFU | 802 RFU | 756 RFU | 656 RFU | 722 RFU | 670 RFU | 636 RFU | 557 RFU | 628 RFU | 569 RFU | 535 RFU | 463 RFU | 494 RFU | 436 RFU | 406 RFU | 338 RFU | Cc1cc(=O)oc2cc(O[C@H]3O[C@H](CO)[C@@H](O)[C@H](O)[C@H]3O)ccc12 [MUG, 4′-methylumbelliferyl-α-D-glucopyranoside]
